The source of these data is patent publication US20110039762A1, “TARGETED ANTIMICROBIAL MOIETIES” (C3 JIAN, INC., priority 2009, published 2011).

“Also recorded” adds a separate entry of the source.

In the first test the test system is microorganisms (e.g., bacteria, yeasts, fungi). Nature of the test: Targeting peptide binding to target microorganisms (Table 3). The following applies: microorganism the targeting peptide binds; binding in aqueous buffers varied by peptide solubility, preferably 1x PBS.
In the case of “PF-047 (NQEPSLQQDKEQKDNKG; Peptide with targeting and/or antimicrobial activity)”, the “Target(s)” value is on record as “S. mutans”. Still for that read-out and setting: then “1T-25 (VGLDVSVLVLFFGLQLLSVLLGAMIR; Peptide with targeting and/or antimicrobial activity) [Peptide 1T-25]”, with “S. aureus; also recorded: S. epidermidis; also recorded: C. xerosis; also recorded: C. striatum; also recorded: P. aeruginosa”.

Take “1T-68 (GGTKEIVYQRG; Peptide with targeting and/or antimicrobial activity) [Peptide 1T-68]”: the “Target(s)” value is recorded as “S. mutans; also recorded: S. aureus; also recorded: C. jeikeium; also recorded: C. xerosis; also recorded: C. striatum; also recorded: P. aeruginosa”. On the same count and under the same terms, as for “1T-29 (GSVIKKRRKRMSKKKHRKMLRRTRVQRRKLGK; Peptide with targeting and/or antimicrobial activity) [Peptide 1T-29]”, the entry is “S. epidermidis; also recorded: C. jeikeium; also recorded: C. xerosis; also recorded: C. striatum; also recorded: P. aeruginosa; also recorded: S. mutans; also recorded: S. aureus”. Same read-out and setting: then “1T-7 (SQRIIEPVKSPQPYPGFSVS; Peptide with targeting and/or antimicrobial activity) [Peptide 1T-7]”, with “M. xanthus”; and “1T-61 (HATLLPAVREAISRQLLPALVPRG; Peptide with targeting and/or antimicrobial activity) [Peptide 1T-61]”, with “P. aeruginosa”. On the same count and under the same terms, then “1T-56 (LALIGAGIWMIRKG; Peptide with targeting and/or antimicrobial activity) [Peptide 1T-56]”, with “C. xerosis; also recorded: P. aeruginosa”. Consider “PF-054 (VSISRFIGGGHVFNGNNKRNL; Peptide with targeting and/or antimicrobial activity)”, for which the “Target(s)” value is listed as “S. epidermidis; also recorded: E. coli”. On the same count and under the same terms, as for “1T-117 (GPGVVGPAPFSRLPAHALNL; Peptide with targeting and/or antimicrobial activity) [Peptide 1T-117]”, the entry is “S. mutans”; as for “1T-273 (YNEPNYKWLESYKIYKQRCEDRTGMYYTEET; Peptide with targeting and/or antimicrobial activity) [Peptide 1T-273]”, “F. nucleatum; also recorded: P. gingivalis; also recorded: T. denticola; also recorded: S. mitis; also recorded: S. mutans; also recorded: S. oralis”.

Still in this test, the particulars now being: microorganism(s) the targeting peptide binds; binding in aqueous buffers depending on peptide solubility, preferably 1x PBS.
Take “PF-259 (LPFSKIGRRVSYKKKDVLKYEQSKTVLNTAQLATV; Peptide with targeting and/or antimicrobial activity)”: the “Target(s)” value was “S. epidermidis; also recorded: P. aeruginosa; also recorded: A. baumannii”. The same measure, in the same setting: then “PF-244 (HMRTISYLLAFAKFSLFIPPKQSLKRL; Peptide with targeting and/or antimicrobial activity)”, with “S. epidermidis; also recorded: M. luteus; also recorded: P. aeruginosa; also recorded: A. baumannii”. For “PF-324 (HFSLL; Peptide with targeting and/or antimicrobial activity)”, the “Target(s)” value was “C. difficile”.

The test is the same for the next values; noted with them: microorganism(s) the targeting peptide binds; peptide binding conducted in aqueous buffers varied by peptide solubility, preferably 1x PBS.
With “PF-492 (IQIDAASFYSISKSTIK; Peptide with targeting and/or antimicrobial activity)”, the “Target(s)” value was “S. mutans; also recorded: B. subtilis; also recorded: E. coli”.

Staying with this test, now noted: peptide binding in aqueous buffers varied by peptide solubility; preferably 1x PBS.
As to “PF-731 (RHKLIRLPLSESVFCFLNNPKI; Peptide with targeting and/or antimicrobial activity)”, the “Target(s) (microorganisms bound by the targeting peptide)” value is “L. pneumophila”. On the same count and under the same terms, then “PF-732 (DRPSQTTHHTLSSSRITGPS; Peptide with targeting and/or antimicrobial activity)”, with “E. coli”. On the same count and under the same terms, as for “PF-791 (IFLTTQNTDYSEHNAA; Peptide with targeting and/or antimicrobial activity)”, the entry is “S. mutans”.
